In patent publication US20080109040A1, “METHOD OF TREATING ARRHYTHMIAS” (priority 2002, published 2008):

Key:
[1] = system: arterially perfused canine left ventricular wedge preparation; test: Action potential and ECG studies in arterially-perfused canine left ventricular wedge preparations; design: APD90 ± SE, M region / TDR / APD50 ± SE, M region / QTend: unit not given beside the values; settings: for APD50 ± SE, Epicardium / APD50 ± SE, M region / APD90 ± SE, Epicardium / APD90 ± SE, M region / QTend / TDR / Tpeak-Tend: BCL = 2000; for Ranolazine-induced Torsade de Pointes, Spontaneous / Ranolazine-induced Torsade de Pointes, Stimulation-induced: ranolazine 1-100 μM
Method: Transmural left ventricular wedges with dimensions of approximately 12 mm×35 mm×12 mm were dissected from the mid-to-basal anterior region of the left ventricular wall and a diagonal branch of the left anterior descending coronary artery was cannulated to deliver the perfusate (Tyrode's solution). The composition of the Tyrode's solution was (in mM): […] A separate set of experiments were performed using Tyrode's solution containing 2 mM KCl. Transmembrane action potentials were recorded from epicardial (EPI) and Subendocardial regions (M) using floating microelectrodes. A transmural pseudo-electrocardiogram (ECG) was recorded using two K-Agar electrodes (1.1 mm, i.d.) placed at approx. 1 cm. from the epicardial (+) and endocardial (−) surfaces of the preparation and along the same axis as the transmembrane recordings. […] A constant flow rate was set before ischemia to reach a perfusion pressure of 40-50 mmHg. The temperature was maintained at 37±0.5° C. by heating the perfusate and a contiguous water-chamber that surrounded the tissue-chamber with the same heater/circulating bath. The top-uncovered part of the tissue-chamber was covered in each experiment to 75% of its surface with plastic sheets to further prevent heat loss; the remainder 25% was kept uncovered to position and maneuver the ECG electrodes and the floating microelectrodes. The preparations were fully immersed in the extracellular solution throughout the course of the experiment. The QT interval was defined as the time interval between the initial deflection of the QRS complex and the point at which a tangent drawn to the steepest portion of the terminal part of the T wave crossed the isoelectric line. Experimental Series 1: […] [K^+]o=4 mM. a. Steady-state stimulation: […] b. Programmed electrical stimulation (PES): Premature stimulation was applied to the epicardial surface before and after each concentration of drug in an attempt to induce arrhythmias. Single pulses (S2) were delivered once after every fifth or tenth basic beat (S1) at cycle lengths of 2000 msec. […] Experimental Series 2: […] [K^+]o=2 mM.

[2] = target: T1, sodium-calcium exchange current (INa-Ca) (Canis lupus familiaris, UniProt P23685); test: Sodium-calcium exchange current voltage clamp in isolated canine left ventricular myocytes; type: cell-based; settings: read-out: IC50 for inhibition of INa-Ca
T1 construct: Single myocytes were obtained by enzymatic dissociation from a wedge-shaped section of the ventricular free wall; endogenous in cells; host or cells: isolated canine left ventricular myocytes

[3] = target: late INa (Canis lupus familiaris, UniProt Q865W3); test: Late INa, perforated patch voltage clamp in isolated canine left ventricular myocytes; type: cell-based; settings: 500 ms pulses to −30 mV at 1 Hz, read-out: Half-inhibition of late INa
[4] = Solubility of ranolazine in aqueous solutions as a function of pH; type: physicochemical
Method: In the following examples solutions of ranolazine in water or solutions with a pH above 6 are made up of ranolazine dihydrochloride. In the discussion portions of the following examples, concentrations of ranolazine found as a result of experiments are calculated as ranolazine free base.

Sequence of late INa (Q865W3 1-2013): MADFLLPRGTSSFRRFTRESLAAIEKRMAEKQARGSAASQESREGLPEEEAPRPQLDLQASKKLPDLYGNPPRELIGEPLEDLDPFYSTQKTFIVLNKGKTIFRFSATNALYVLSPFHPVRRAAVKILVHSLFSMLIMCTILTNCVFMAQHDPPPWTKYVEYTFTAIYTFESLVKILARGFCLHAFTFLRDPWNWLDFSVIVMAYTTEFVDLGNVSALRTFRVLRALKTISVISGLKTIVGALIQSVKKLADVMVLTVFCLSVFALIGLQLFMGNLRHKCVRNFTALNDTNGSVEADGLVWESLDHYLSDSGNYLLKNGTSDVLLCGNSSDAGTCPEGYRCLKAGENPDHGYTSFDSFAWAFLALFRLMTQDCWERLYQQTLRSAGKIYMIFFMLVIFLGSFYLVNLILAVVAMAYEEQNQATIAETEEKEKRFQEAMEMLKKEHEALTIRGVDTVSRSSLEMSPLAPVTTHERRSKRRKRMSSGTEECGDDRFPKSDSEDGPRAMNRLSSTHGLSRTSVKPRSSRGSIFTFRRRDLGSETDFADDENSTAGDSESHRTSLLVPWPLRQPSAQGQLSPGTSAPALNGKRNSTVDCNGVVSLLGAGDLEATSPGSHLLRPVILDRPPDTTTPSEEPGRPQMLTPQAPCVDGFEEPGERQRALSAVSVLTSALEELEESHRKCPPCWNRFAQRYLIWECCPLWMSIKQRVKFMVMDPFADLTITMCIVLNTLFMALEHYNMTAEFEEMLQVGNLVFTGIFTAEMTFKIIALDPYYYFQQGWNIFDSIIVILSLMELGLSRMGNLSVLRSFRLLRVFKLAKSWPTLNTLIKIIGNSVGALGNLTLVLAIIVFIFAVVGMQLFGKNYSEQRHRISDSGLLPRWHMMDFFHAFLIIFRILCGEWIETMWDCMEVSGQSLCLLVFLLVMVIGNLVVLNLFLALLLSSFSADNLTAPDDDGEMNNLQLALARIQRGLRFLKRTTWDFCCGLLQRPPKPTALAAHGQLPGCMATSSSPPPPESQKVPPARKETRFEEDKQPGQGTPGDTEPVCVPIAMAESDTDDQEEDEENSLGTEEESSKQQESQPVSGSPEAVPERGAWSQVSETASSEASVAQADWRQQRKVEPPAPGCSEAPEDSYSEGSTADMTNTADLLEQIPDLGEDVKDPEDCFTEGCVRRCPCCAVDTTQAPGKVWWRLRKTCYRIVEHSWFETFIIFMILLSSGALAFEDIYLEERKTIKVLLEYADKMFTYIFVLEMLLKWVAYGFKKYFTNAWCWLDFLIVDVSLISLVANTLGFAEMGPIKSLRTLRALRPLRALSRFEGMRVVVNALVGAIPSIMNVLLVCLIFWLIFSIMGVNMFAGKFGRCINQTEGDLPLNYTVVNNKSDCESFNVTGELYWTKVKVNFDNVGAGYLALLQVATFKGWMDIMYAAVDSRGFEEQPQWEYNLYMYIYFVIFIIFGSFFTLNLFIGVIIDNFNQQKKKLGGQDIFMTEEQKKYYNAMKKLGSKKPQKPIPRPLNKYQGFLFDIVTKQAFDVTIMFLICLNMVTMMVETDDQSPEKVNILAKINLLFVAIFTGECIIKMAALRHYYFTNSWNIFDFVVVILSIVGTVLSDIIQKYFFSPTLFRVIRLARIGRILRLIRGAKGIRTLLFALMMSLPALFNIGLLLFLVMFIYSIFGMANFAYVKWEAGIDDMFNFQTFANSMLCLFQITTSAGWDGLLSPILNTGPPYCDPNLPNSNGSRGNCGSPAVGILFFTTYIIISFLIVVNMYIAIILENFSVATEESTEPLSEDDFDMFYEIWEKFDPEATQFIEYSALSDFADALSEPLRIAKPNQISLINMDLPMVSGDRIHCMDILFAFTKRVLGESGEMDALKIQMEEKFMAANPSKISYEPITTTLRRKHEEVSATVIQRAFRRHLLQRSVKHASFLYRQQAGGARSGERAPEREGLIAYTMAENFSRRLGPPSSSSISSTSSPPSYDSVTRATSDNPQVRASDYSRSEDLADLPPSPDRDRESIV

COc1ccccc1OCC(O)CN1CCN(CC(=O)Nc2c(C)cccc2C)CC1 (racemic) [ranolazine, N-(2,6-dimethylphenyl)-4-[2-hydroxy-3-(2-methoxyphenoxy)propyl]-1-piperazineacetamide]
APD50 ± SE, Epicardium ([1]; 1 μM, 2 mM [KCl]0): 173 ± 2 | APD50 ± SE, M region ([1]; 1 μM, 2 mM [KCl]0): 210.7 ± 13.53 | APD90 ± SE, Epicardium ([1]; 1 μM, 2 mM [KCl]0): 232 ± 5.508 | APD90 ± SE, M region ([1]; 1 μM, 2 mM [KCl]0): 280.3 ± 12.72 | QTend ([1]; 1 μM, 2 mM [KCl]0): 311 ± 9.5 | TDR ([1]; 1 μM, 2 mM [KCl]0): 28.33 ± 11.46 | Tpeak-Tend ([1]; 1 μM, 2 mM [KCl]0): 35 ± 4.70 | APD50 ± SE, Epicardium ([1]; 1 μM, 4 mM [KCl]0): 176.3 ± 12.25 | APD50 ± SE, M region ([1]; 1 μM, 4 mM [KCl]0): 203.3 ± 9.621 | APD90 ± SE, Epicardium ([1]; 1 μM, 4 mM [KCl]0): 213.8 ± 13.28 | APD90 ± SE, M region ([1]; 1 μM, 4 mM [KCl]0): 254.3 ± 9.15 | QTend ([1]; 1 μM, 4 mM [KCl]0): 263.5 ± 10.56 | TDR ([1]; 1 μM, 4 mM [KCl]0): 26.75 ± 8.045 | Tpeak-Tend ([1]; 1 μM, 4 mM [KCl]0): 34.5 ± 3.202 | APD50 ± SE, Epicardium ([1]; 5 μM, 2 mM [KCl]0): 183.5 ± 1.5 | APD50 ± SE, M region ([1]; 5 μM, 2 mM [KCl]0): 205.7 ± 7.881 | APD90 ± SE, Epicardium ([1]; 5 μM, 2 mM [KCl]0): 252.5 ± 10.5 | APD90 ± SE, M region ([1]; 5 μM, 2 mM [KCl]0): 289.7 ± 2.848 | QTend ([1]; 5 μM, 2 mM [KCl]0): 319 ± 4.58 | TDR ([1]; 5 μM, 2 mM [KCl]0): 15 ± 7 | Tpeak-Tend ([1]; 5 μM, 2 mM [KCl]0): 33 ± 1.33 | APD50 ± SE, Epicardium ([1]; 5 μM, 4 mM [KCl]0): 176.5 ± 11.85 | APD50 ± SE, M region ([1]; 5 μM, 4 mM [KCl]0): 207.5 ± 8.627 | APD90 ± SE, Epicardium ([1]; 5 μM, 4 mM [KCl]0): 219 ± 12.12 | APD90 ± SE, M region ([1]; 5 μM, 4 mM [KCl]0): 258.3 ± 11.08 | QTend ([1]; 5 μM, 4 mM [KCl]0): 274.5 ± 13.73 | TDR ([1]; 5 μM, 4 mM [KCl]0): 36 ± 2.449 | Tpeak-Tend ([1]; 5 μM, 4 mM [KCl]0): 37.75 ± 4.09 | APD50 ± SE, Epicardium ([1]; 10 μM, 2 mM [KCl]0): 190 ± 2 | APD50 ± SE, M region ([1]; 10 μM, 2 mM [KCl]0): 208.3 ± 3.48 | APD90 ± SE, Epicardium ([1]; 10 μM, 2 mM [KCl]0): 265.5 ± 16.5 | APD90 ± SE, M region ([1]; 10 μM, 2 mM [KCl]0): 305.3 ± 4.978 | QTend ([1]; 10 μM, 2 mM [KCl]0): 329 ± 2.33 | TDR ([1]; 10 μM, 2 mM [KCl]0): 23.5 ± 1.5 | Tpeak-Tend ([1]; 10 μM, 2 mM [KCl]0): 36 ± 4.09 | APD50 ± SE, Epicardium ([1]; 10 μM, 4 mM [KCl]0): 170.5 ± 12.03 | APD50 ± SE, M region ([1]; 10 μM, 4 mM [KCl]0): 199 ± 9.083 | APD90 ± SE, Epicardium ([1]; 10 μM, 4 mM [KCl]0): 216.5 ± 13.41 | APD90 ± SE, M region ([1]; 10 μM, 4 mM [KCl]0): 260.3 ± 12.66 | QTend ([1]; 10 μM, 4 mM [KCl]0): 277.8 ± 14.99 | TDR ([1]; 10 μM, 4 mM [KCl]0): 30.75 ± 10.46 | Tpeak-Tend ([1]; 10 μM, 4 mM [KCl]0): 39.25 ± 5.54 | APD50 ± SE, Epicardium ([1]; 50 μM, 2 mM [KCl]0): 179 ± 1 | APD50 ± SE, M region ([1]; 50 μM, 2 mM [KCl]0): 214.3 ± 6.333 | APD90 ± SE, Epicardium ([1]; 50 μM, 2 mM [KCl]0): 276.5 ± 18.5 | APD90 ± SE, M region ([1]; 50 μM, 2 mM [KCl]0): 325.5 ± 5.5 | QTend ([1]; 50 μM, 2 mM [KCl]0): 343 ± 2.84 | TDR ([1]; 50 μM, 2 mM [KCl]0): 35.5 ± 3.5 | Tpeak-Tend ([1]; 50 μM, 2 mM [KCl]0): 41 ± 6.35 | APD50 ± SE, Epicardium ([1]; 50 μM, 4 mM [KCl]0): 159.5 ± 12.82 | APD50 ± SE, M region ([1]; 50 μM, 4 mM [KCl]0): 187.8 ± 11.21 | APD90 ± SE, Epicardium ([1]; 50 μM, 4 mM [KCl]0): 218 ± 15.91 | APD90 ± SE, M region ([1]; 50 μM, 4 mM [KCl]0): 257.5 ± 15.47 | QTend ([1]; 50 μM, 4 mM [KCl]0): 279.3 ± 17.21 | TDR ([1]; 50 μM, 4 mM [KCl]0): 32.5 ± 6.278 | Tpeak-Tend ([1]; 50 μM, 4 mM [KCl]0): 41.25 ± 8.37 | APD50 ± SE, Epicardium ([1]; 100 μM, 2 mM [KCl]0): 167.5 ± 0.5 | APD50 ± SE, M region ([1]; 100 μM, 2 mM [KCl]0): 187.7 ± 4.978 | APD90 ± SE, Epicardium ([1]; 100 μM, 2 mM [KCl]0): 293.5 ± 21.5 | APD90 ± SE, M region ([1]; 100 μM, 2 mM [KCl]0): 345 ± 14.36 | QTend ([1]; 100 μM, 2 mM [KCl]0): 376 ± 4.48 | TDR ([1]; 100 μM, 2 mM [KCl]0): 35 ± 11 | Tpeak-Tend ([1]; 100 μM, 2 mM [KCl]0): 55 ± 1.00 | APD50 ± SE, Epicardium ([1]; 100 μM, 4 mM [KCl]0): 152.5 ± 14.44 | APD50 ± SE, M region ([1]; 100 μM, 4 mM [KCl]0): 169 ± 10.5 | APD90 ± SE, Epicardium ([1]; 100 μM, 4 mM [KCl]0): 220.5 ± 18.26 | APD90 ± SE, M region ([1]; 100 μM, 4 mM [KCl]0): 247.8 ± 15.32 | QTend ([1]; 100 μM, 4 mM [KCl]0): 284.5 ± 14.39 | TDR ([1]; 100 μM, 4 mM [KCl]0): 23.75 ± 2.689 | Tpeak-Tend ([1]; 100 μM, 4 mM [KCl]0): 40.5 ± 4.94 | Arrhythmias in the wedge preparation ([1]; any concentration of ranolazine): No arrhythmias were observed | Ranolazine-induced Torsade de Pointes, Spontaneous ([1]; 2 mM [K+]0): 0/3 | Ranolazine-induced Torsade de Pointes, Stimulation-induced ([1]; 2 mM [K+]0): 0/3 | Ranolazine-induced Torsade de Pointes, Spontaneous ([1]; 4 mM [K+]0): 0/4 | Ranolazine-induced Torsade de Pointes, Stimulation-induced ([1]; 4 mM [K+]0): 0/4 | Early or delayed afterdepolarizations ([1]; tissue or wedge preparations, any concentration of ranolazine): Neither early nor delayed afterdepolarizations were observed | IC50 [2]: 91 µM | IC50 [3]: 21 µM | USP Solubility Class ([4]; solution pH 4.81): Freely Soluble | USP Solubility Class ([4]; solution pH 4.89): Soluble | USP Solubility Class ([4]; solution pH 4.90): Soluble | USP Solubility Class ([4]; solution pH 5.04): Soluble | USP Solubility Class ([4]; solution pH 5.35): Sparingly Soluble | USP Solubility Class ([4]; solution pH 5.82): Slightly soluble | USP Solubility Class ([4]; solution pH 6.46): Slightly soluble | USP Solubility Class ([4]; solution pH 6.73): Very slightly soluble | USP Solubility Class ([4]; solution pH 7.08): Very slightly soluble | USP Solubility Class ([4]; solution pH 7.59 (unbuffered water)): Very slightly soluble | USP Solubility Class ([4]; solution pH 7.79): Very slightly soluble | USP Solubility Class ([4]; solution pH 12.66): Very slightly soluble
